Results on nine compounds are retold here after US20250144067A1, “PERSONALIZED STARVATION THERAPY FOR CANCER” (Faeth Therapeutics, Inc., priority 2021, published 2025).

Each structure is given as a SMILES string. Where a name gives a salt, the structure may show the parent alone. Read-outs that look alike come from different tables or passages of the source.

Assay [1] relates to NCI-H292 lung cancer cells. Put plainly: FDA drug screening, complete media vs cholesterol-free media with simvastatin (TABLE 2). In kind it is cell-based, human.
Assay [2] concerns NCI-H292 lung cancer cells. The assay is described as follows: FDA drug screening, complete media vs cholesterol-free media without statin (TABLE 1). It is filed as cell-based, human.
[3] abbreviates: NCI-H292 cells, FDA drug library screen, cholesterol-free media with simvastatin 0.04 μM.
[4] abbreviates: NCI-H292 cells, FDA drug library screen, complete media.
Setting [5] is: complete media vs cholesterol-free media + simvastatin (0.04 μM), >0 enhanced anti-cancer activity, about 0 neutral, <0 antagonist.
The mark [6] stands for this setting: NCI-H292 cells in cholesterol-free media without statin.
The mark [7] stands for this setting: NCI-H292 cells in complete media.
[8] abbreviates: NCI-H292 cells, FDA library drug in cholesterol-free media with simvastatin 0.04 μM.
The mark [9] stands for this setting: NCI-H292 cells, FDA library drug in complete media.
Setting [10] is: NCI-H292 cells, drug in cholesterol-free media with simvastatin 0.04 μM.
Where [11] appears, read: NCI-H292 cells, drug in complete media.
The mark [12] stands for this setting: NCI-H292 cells, cholesterol-free media without statin, FDA drug library screen.
Setting [13] is: NCI-H292 cells, complete media, FDA drug library screen.
[14] abbreviates: complete vs cholesterol-free media, >0 enhanced anti-cancer activity, about 0 neutral, <0 antagonist.
The mark [15] stands for this setting: NCI-H292 cells, cholesterol-free media without statin.
The mark [16] stands for this setting: complete vs cholesterol-free media, greater than 0 enhanced anti-cancer activity, about 0 neutral, below 0 antagonists.
Setting [17] is: Complete minus Cholesterol-free, >0 enhanced anti-cancer activity, about 0 neutral, <0 antagonist.

For the compound `CN(C)C(=O)Oc1ccc[n+](C)c1.[Br-]` [Pyridostigmine (bromide)], in assay [1], the “Cholesterol-free media + simvastatin (0.04 μM)” value came out at 1.546, the “Complete Media” value was found to be 1.09 and the Difference is −0.46. In assay [2], the Cholesterol-free was determined as 0.882, the Complete turned out to be 0.9353 and the Difference is reported as 0.05.

Turning to `CCCCN1C[C@H](O)[C@@H](O)[C@H](O)[C@H]1CO` [Miglustat (hydrochloride)], the “Cholesterol-free media + simvastatin (0.04 μM)” value in assay [1] (setting [3]) is recorded as 0.8113. The “Complete Media” value in assay [1] (setting [4]) was determined as 0.7082. Further, the Difference in assay [1] (setting [5]) was −0.10; in assay [2] (Complete minus Cholesterol-free, greater than 0 enhanced anti-cancer activity, about 0 neutral, below 0 antagonists), −0.51. This compound returned a Cholesterol-free in assay [2] (setting [6]) of 1.836. Besides, the Complete in assay [2] (setting [7]) was found to be 1.323.

Consider `CC(=O)[C@H]1CC[C@H]2[C@@H]3CC=C4C[C@@H](O)CC[C@]4(C)[C@H]3CC[C@]12C` [Pregnenolone], for which the “Cholesterol-free media + simvastatin (0.04 μM)” value in assay [1] (setting [8]) amounted to 1.424. Further, the “Complete Media” value in assay [1] (setting [9]) turned out to be 0.9118. For the same compound, the Difference is reported as −0.51 in assay [1] (complete media vs cholesterol-free media + simvastatin (0.04 μM), […]) and −0.56 in assay [2] (Complete minus Cholesterol-free, […]). In assay [2] (setting [6]), this compound registered a Cholesterol-free of 1.529. This compound also yielded a Complete in assay [2] (setting [7]) of 0.9655.

Take `CC1(C)S[C@@H]2[C@H](NC(=O)[C@H](NC(=O)N3CCN(S(C)(=O)=O)C3=O)c3ccccc3)C(=O)N2[C@H]1C(=O)[O-].[Na+]` [Mezlocillin (sodium)]: in assay [1] (setting [10]), the “Cholesterol-free media + simvastatin (0.04 μM)” value turned out to be 1.179. The “Complete Media” value in assay [1] (setting [11]) is recorded as 0.9159. Also, the Difference in assay [1] (setting [5]) is −0.26; in assay [2] (setting [14]), 0.44. The Cholesterol-free in assay [2] (setting [12]) was found to be 0.8225. The same compound gave a Complete in assay [2] (setting [13]) of 1.264.

With `Cn1c(=O)c2[nH]cnc2n(C)c1=O` [Theophylline], the “Cholesterol-free media + simvastatin (0.04 μM)” value in assay [1] (setting [3]) was 1.182. Moreover, in assay [1] (setting [4]), the “Complete Media” value amounted to 1.026. Moreover, the results for the Difference in assay [1] (setting [5]) and in assay [2] (setting [16]) were −0.16 and −0.42, respectively. The Cholesterol-free in assay [2] (setting [15]) amounted to 1.592. This compound had a Complete in assay [2] (NCI-H292 cells, complete media) of 1.176.

For the compound `CCC(C)(Oc1ccc(C2(c3ccc(OC(C)(CC)C(=O)O)cc3)CCCCC2)cc1)C(=O)O` (stereo not drawn) [Clinofibrate], in assay [1] (setting [10]), the “Cholesterol-free media + simvastatin (0.04 μM)” value is 1.342. Further, the “Complete Media” value in assay [1] (setting [11]) came out at 1.081. In addition, the Difference in assay [1] (setting [5]) was −0.26; in assay [2] (setting [16]), −0.34. Also, the Cholesterol-free in assay [2] (setting [15]) was determined as 1.347. Also, the Complete in assay [2] (NCI-H292 cells, complete media) stood at 1.007.

Take `COc1ccc(O)cc1` [Mequinol]: the “Cholesterol-free media + simvastatin (0.04 μM)” value in assay [1] (setting [8]) worked out at 1.22. For the same compound, the “Complete Media” value in assay [1] (setting [9]) is recorded as 0.8263. Besides, the figures for the Difference in assay [1] (setting [5]) and in assay [2] (setting [17]) were −0.39 and −0.26, respectively. In assay [2] (setting [15]), this compound showed a Cholesterol-free of 0.8829. The same compound gave a Complete in assay [2] (NCI-H292 cells, complete media) of 0.6277.

For `CN1[C@@H](CC(=O)c2ccccc2)CCC[C@H]1C[C@H](O)c1ccccc1` [Lobeline (hydrochloride)], the “Cholesterol-free media + simvastatin (0.04 μM)” value in assay [1] (setting [8]) was 1.408. In addition, the “Complete Media” value in assay [1] (setting [9]) was 1.116. For the same compound, the Difference in assay [1] (setting [5]) was −0.29; in assay [2] (setting [14]), 0.55. Besides, the Cholesterol-free in assay [2] (setting [12]) is on record as 0.6538. The compound also had a Complete in assay [2] (setting [13]) of 1.202.

Take `CC(C)(C#N)c1cc(Cn2cncn2)cc(C(C)(C)C#N)c1` [Anastrozole]: in assay [1] (NCI-H292 cells, cholesterol-free media with simvastatin 0.04 μM, FDA drug library screen (TABLE 2)), the “Cholesterol-free media + simvastatin (0.04 μM)” value was determined as 1.07. Further, in assay [1] (NCI-H292 cells, complete media, FDA drug library screen (TABLE 2)), the “Complete Media” value came out at 1.045. Besides, the Difference in assay [1] (complete media minus cholesterol-free media + simvastatin (0.04 μM), >0 enhanced anti-cancer activity, about 0 neutral, <0 antagonist) was −0.02; in assay [2] (setting [17]), −0.28. The same compound returned a Cholesterol-free in assay [2] (setting [15]) of 1.263. In assay [2] (NCI-H292 cells, complete media), this compound returned a Complete of 0.9847.
